According to patent publication US9914730B2, “Azaquinazoline inhibitors of Atypical protein Kinase C” (Ignyta, Inc., priority 2012, dated 2018):
pIC50: −log10 of the molar value.

Molecular target: T1, full-length human PKCι (Homo sapiens, UniProt P41743)
T1 construct: Recombinant, full-length human PKCι expressed in Sf21 insect cells is also commercially available; purchased; host or cells: Sf21 insect cells
T1 sequence (P41743 1-596): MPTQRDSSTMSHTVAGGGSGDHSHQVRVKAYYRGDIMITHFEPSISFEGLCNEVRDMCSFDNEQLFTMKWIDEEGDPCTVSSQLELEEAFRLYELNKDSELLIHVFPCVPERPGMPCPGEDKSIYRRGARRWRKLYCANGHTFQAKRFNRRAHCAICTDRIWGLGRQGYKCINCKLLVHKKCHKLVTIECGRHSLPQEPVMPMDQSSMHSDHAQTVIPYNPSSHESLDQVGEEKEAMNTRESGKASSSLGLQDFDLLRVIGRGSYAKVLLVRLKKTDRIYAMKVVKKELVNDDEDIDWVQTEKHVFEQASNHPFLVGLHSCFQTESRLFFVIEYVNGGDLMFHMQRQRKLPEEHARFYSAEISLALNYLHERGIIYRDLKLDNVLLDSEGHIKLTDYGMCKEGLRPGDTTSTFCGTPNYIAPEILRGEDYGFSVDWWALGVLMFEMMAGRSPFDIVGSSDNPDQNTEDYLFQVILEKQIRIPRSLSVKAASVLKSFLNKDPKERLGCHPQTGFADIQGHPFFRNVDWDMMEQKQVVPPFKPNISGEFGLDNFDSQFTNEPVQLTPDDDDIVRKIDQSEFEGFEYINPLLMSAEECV
Assay: PKCι IC50 IMAP assay, full-length PKCι at 150 μM ATP
Assay type: biochemical
Conditions: read-out: IC50 in IMAP assay against full length PKCi at 150 μM ATP
Summary of the method: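 Full-length human PKCι from Sf21 cells, typically 15 pM, with 100 nM 5FAM-PKCε pseudosubstrate peptide and 150 μM ATP (5× apparent KM), 60 min at room temperature, 4% DMSO. IMAP fluorescence polarisation read-out; inhibition normalised to no-compound and no-enzyme controls, IC50 from curve fit.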

Structure (SMILES) | pIC50
COc1cncc2nc(-c3ccnc(Nc4cc(C#N)ccn4)c3)nc(N3CCN(C)CC3)c12 [Example 397, 2-{4-[5-Methoxy-4-(4-methyl-piperazin-1-yl)-pyrido[3,4-d]pyrimidin-2-yl]-pyridin-2-ylamino}-isonicotinonitrile] | 6.00 to 7.00
COc1cncc2nc(-c3ccnc(NC(=O)Cc4cccc(Cl)c4)c3)nc(N3CCN(C)CC3)c12 [Example 398, 2-(3-Chloro-phenyl)-N-{4-[5-methoxy-4-(4-methyl-piperazin-1-yl)-pyrido[3,4-d]pyrimidin-2-yl]-pyridin-2-yl}-acetamide] | 6.00 to 7.00
COc1cncc2nc(-c3ccnc(Nc4cc(C#N)ccn4)c3)nc(N3CCC(O)CC3)c12 [Example 402, 2-{4-[4-(4-Hydroxy-piperidin-1-yl)-5-methoxy-pyrido[3,4-d]pyrimidin-2-yl]-pyridin-2-ylamino}-isonicotinonitrile] | 6.00 to 7.00
COc1cncc2nc(-c3ccnc(NC(=O)Cc4cccc(C#N)c4)c3)nc(N3CCC(O)CC3)c12 [Example 403, 2-(3-Cyano-phenyl)-N-{4-[4-(4-hydroxy-piperidin-1-yl)-5-methoxy-pyrido[3,4-d]pyrimidin-2-yl]-pyridin-2-yl}-acetamide] | 6.00 to 7.00
COc1cncc2nc(-c3ccnc(NC(=O)Cc4cccc(C#N)c4)c3)nc(N3CCN(C)CC3)c12 [Example 404, 2-(3-Cyano-phenyl)-N-{4-[5-methoxy-4-(4-methyl-piperazin-1-yl)-pyrido[3,4-d]pyrimidin-2-yl]-pyridin-2-yl}-acetamide] | 6.00 to 7.00
COc1cncc2nc(-c3ccnc(NC(=O)[C@H](C)c4ccccc4)c3)nc(N[C@@H]3CCNC3)c12 [Example 406, (R)-N-{4-[5-Methoxy-4-((R)-pyrrolidin-3-ylamino)-pyrido[3,4-d]pyrimidin-2-yl]-pyridin-2-yl}-2-phenyl-propionamide] | 6.00 to 7.00
COc1cncc2nc(-c3ccnc(NC(=O)[C@@H](C)c4ccccc4)c3)nc(N[C@@H]3CCNC3)c12 [Example 407, (S)-N-{4-[5-Methoxy-4-((R)-pyrrolidin-3-ylamino)-pyrido[3,4-d]pyrimidin-2-yl]-pyridin-2-yl}-2-phenyl-propionamide] | 6.00 to 7.00
COc1cncc2nc(-c3ccnc(NC(=O)[C@H](C)c4ccccc4)c3)nc(N3CCNCC3)c12 [Example 408, (R)-N-[4-(5-Methoxy-4-piperazin-1-yl-pyrido[3,4-d]pyrimidin-2-yl)-pyridin-2-yl]-2-phenyl-propionamide] | 6.00 to 7.00
COc1cncc2nc(-c3ccnc(NC(=O)[C@@H](C)c4ccccc4)c3)nc(N3CCNCC3)c12 [Example 409, (S)-N-[4-(5-Methoxy-4-piperazin-1-yl-pyrido[3,4-d]pyrimidin-2-yl)-pyridin-2-yl]-2-phenyl-propionamide] | 6.00 to 7.00
COc1cncc2nc(-c3ccnc(Nc4ncccc4C)c3)nc(N3CCNCC3)c12 [Example 410, [4-(5-Methoxy-4-piperazin-1-yl-pyrido[3,4-d]pyrimidin-2-yl)-pyridin-2-yl]-(3-methyl-pyridin-2-yl)-amine] | 6.00 to 7.00
COc1cncc2nc(-c3ccnc(Nc4cncc(Cl)c4)c3)nc(N3CCNCC3)c12 [Example 417, (5-Chloro-pyridin-3-yl)-[4-(5-methoxy-4-piperazin-1-yl-pyrido[3,4-d]pyrimidin-2-yl)-pyridin-2-yl]-amine] | 6.00 to 7.00
COc1cncc2nc(-c3ccnc(Nc4ccc(C#N)cc4F)c3)nc(N3CCNCC3)c12 [Example 419, 3-Fluoro-4-[4-(5-methoxy-4-piperazin-1-yl-pyrido[3,4-d]pyrimidin-2-yl)-pyridin-2-ylamino]-benzonitrile] | 6.00 to 7.00
COc1cncc2nc(-c3ccnc(Nc4cc(C#N)ccc4F)c3)nc(N3CCNCC3)c12 [Example 420, 4-Fluoro-3-[4-(5-methoxy-4-piperazin-1-yl-pyrido[3,4-d]pyrimidin-2-yl)-pyridin-2-ylamino]-benzonitrile] | 6.00 to 7.00
COc1cncc(Nc2cc(-c3nc(N4CCNCC4)c4c(OC)cncc4n3)ccn2)c1 [Example 424, [4-(5-Methoxy-4-piperazin-1-yl-pyrido[3,4-d]pyrimidin-2-yl)-pyridin-2-yl]-(5-methoxy-pyridin-3-yl)-amine] | > 7.00
COc1cncc2nc(-c3ccnc(Nc4ccccc4)c3)nc(N3CCC[C@H](O)C3)c12 [Example 425, (S)-1-[5-Methoxy-2-(2-phenylamino-pyridin-4-yl)-pyrido[3,4-d]pyrimidin-4-yl]-piperidin-3-ol] | 5.00 to 6.00
COc1cncc2nc(-c3ccnc(Nc4cc(C#N)ccn4)c3)nc(N3CCC[C@H](O)C3)c12 [Example 426, 2-{4-[4-((S)-3-Hydroxy-piperidin-1-yl)-5-methoxy-pyrido[3,4-d]pyrimidin-2-yl]-pyridin-2-ylamino}-isonicotinonitrile] | 5.00 to 6.00
COc1cncc2nc(-c3ccnc(Nc4ccccc4)c3)nc(N3CCC(O)CC3)c12 [Example 427, 1-[5-Methoxy-2-(2-phenylamino-pyridin-4-yl)-pyrido[3,4-d]pyrimidin-4-yl]-piperidin-4-ol] | 5.00 to 6.00

Continued, values first:

pIC50 | Structure (SMILES)
> 7.00 | COc1cncc2nc(-c3ccnc(NC(=O)Cc4cccnc4)c3)nc(N[C@@H]3CCNC3)c12 [Example 396, N-{4-[5-Methoxy-4-((R)-pyrrolidin-3-ylamino)-pyrido[3,4-d]pyrimidin-2-yl]-pyridin-2-yl}-2-pyridin-3-yl-acetamide]
> 7.00 | COc1cncc2nc(-c3ccnc(NC(=O)Cc4cccnc4)c3)nc(N3CCNCC3)c12 [Example 399, N-[4-(5-Methoxy-4-piperazin-1-yl-pyrido[3,4-d]pyrimidin-2-yl)-pyridin-2-yl]-2-pyridin-3-yl-acetamide]
> 7.00 | COc1cncc2nc(-c3ccnc(NC(=O)Cc4ccncc4)c3)nc(N3CCNCC3)c12 [Example 400, N-[4-(5-Methoxy-4-piperazin-1-yl-pyrido[3,4-d]pyrimidin-2-yl)-pyridin-2-yl]-2-pyridin-4-yl-acetamide]
> 7.00 | COc1ccnc(Nc2cc(-c3nc(N4CCNCC4)c4c(OC)cncc4n3)ccn2)c1 [Example 401, [4-(5-Methoxy-4-piperazin-1-yl-pyrido[3,4-d]pyrimidin-2-yl)-pyridin-2-yl]-(4-methoxy-pyridin-2-yl)-amine]
> 7.00 | COc1cncc2nc(-c3ccnc(Nc4ncccc4F)c3)nc(N3CCNCC3)c12 [Example 411, (3-Fluoro-pyridin-2-yl)-[4-(5-methoxy-4-piperazin-1-yl-pyrido[3,4-d]pyrimidin-2-yl)-pyridin-2-yl]-amine]
> 7.00 | COc1cncc2nc(-c3ccnc(Nc4ccc(N5CCNCC5)nc4)c3)nc(N3CCNCC3)c12 [Example 412, [4-(5-Methoxy-4-piperazin-1-yl-pyrido[3,4-d]pyrimidin-2-yl)-pyridin-2-yl]-(6-piperazin-1-ylpyridin-3-yl)-amine]
> 7.00 | COc1cncc2nc(-c3ccnc(Nc4ccc(N5CCN(C)CC5)cc4C)c3)nc(N3CCNCC3)c12 [Example 413, [4-(5-Methoxy-4-piperazin-1-yl-pyrido[3,4-d]pyrimidin-2-yl)-pyridin-2-yl]-[2-methyl-4-(4-methyl-piperazin-1-yl)-phenyl]-amine]
> 7.00 | COc1cncc2nc(-c3ccnc(Nc4cnn(C5CCNCC5)c4)c3)nc(N3CCNCC3)c12 [Example 414, [4-(5-Methoxy-4-piperazin-1-yl-pyrido[3,4-d]pyrimidin-2-yl)-pyridin-2-yl]-(1-piperidin-4-yl-1H-pyrazol-4-yl)-amine]
> 7.00 | COc1cncc2nc(-c3ccnc(Nc4cccc(C)n4)c3)nc(N3CCNCC3)c12 [Example 415, [4-(5-Methoxy-4-piperazin-1-yl-pyrido[3,4-d]pyrimidin-2-yl)-pyridin-2-yl]-(6-methyl-pyridin-2-yl)-amine]
> 7.00 | COc1cncc2nc(-c3ccnc(Nc4cncc(C)c4)c3)nc(N3CCNCC3)c12 [Example 416, [4-(5-Methoxy-4-piperazin-1-yl-pyrido[3,4-d]pyrimidin-2-yl)-pyridin-2-yl]-(5-methyl-pyridin-3-yl)-amine]
> 7.00 | COc1cncc2nc(-c3ccnc(Nc4ccc(N5CCOCC5)cc4F)c3)nc(N3CCNCC3)c12 [Example 418, (2-Fluoro-4-morpholin-4-yl-phenyl)-[4-(5-methoxy-4-piperazin-1-yl-pyrido[3,4-d]pyrimidin-2-yl)-pyridin-2-yl]-amine]
> 7.00 | COc1cncc2nc(-c3ccnc(Nc4c(F)cccc4F)c3)nc(N3CCNCC3)c12 [Example 421, (2,6-Difluoro-phenyl)-[4-(5-methoxy-4-piperazin-1-yl-pyrido[3,4-d]pyrimidin-2-yl)-pyridin-2-yl]-amine]
> 7.00 | COc1cncc2nc(-c3ccnc(Nc4c(C)cccc4F)c3)nc(N3CCNCC3)c12 [Example 422, (2-Fluoro-6-methyl-phenyl)-[4-(5-methoxy-4-piperazin-1-yl-pyrido[3,4-d]pyrimidin-2-yl)-pyridin-2-yl]-amine]
